Where a name gives a salt, the structure may show the parent alone.

Broadly, the melting point is the temperature, or range, at which the solid turns liquid.

Take `Cc1ccc(N)c(C#Cc2cccc(Cl)c2)n1.Cl`: the melting point was 195 °C (dec.). Turning to `Cc1ccc(N)c(C#Cc2ccc(F)cc2)n1.Cl`, the melting point was 122 °C (dec.). As to `Cc1ccc(N)c(C#Cc2cccc(C#N)c2)n1.Cl`, the melting point lay in the range of 132.4 to 134 °C. `Cc1cc(C)c(N)c(C#Cc2cccc(Cl)c2)n1` (as salt: hydrochloride) [Example 13, (2-(3-Chloro-phenylethynyl)-4.6-dimethyl-pyridin-3-yl)amine hydrochloride] returned a melting point of 204 °C. Consider `Cc1ccc(N)c(C#Cc2cccc(F)c2)n1.Cl` [Example 3, (2-(3-Fluoro-phenylethynyl)-6-methyl-pyridin-3-yl)amine hydrochloride], for which the melting point is 199 to 200 °C (dec.).

Compound `COc1cccc(C#Cc2nc(C)ccc2N)c1` [Example 4, (2-(3-Methoxy-phenylethynyl)-6-methyl-pyridin-3-yl)amine] yielded a melting point of 165 to 166 °C.

Turning to `Cc1ccc(N)c(C#Cc2cc(F)cc(F)c2)n1.Cl` [Example 7, (2-(3,5-Difluoro-phenylethynyl)-6-methyl-pyridin-3-yl)amine hydrochloride], the melting point was 212 °C (dec.). Consider `Cc1ccc(N)c(C#Cc2cncc(Cl)c2)n1.Cl` [Example 10, (2-(5-Chloro-pyridin-3-ylethynyl)-6-methyl-pyridin-3-yl)amine hydrochloride], for which the melting point was 193 °C (dec.).

The values above are taken from patent US7205411B2, “Aminopyridine derivatives as mGluR5 antagonists” (Addex Pharmaceuticals SA, priority 2003, dated 2007).
